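Interpolation was linear, between the two tested concentrations surrounding the appropriate level; five concentrations were tested over 48 hours in 96-well plates. Here, GI50 denotes the concentration required for 50% inhibition of growth.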 The source made the active and inactive calls. Cut-off read from the data, not from the text of the source: active = GI50 up to about 1.1 µM and inactive = higher.
How the values were obtained:
Assay in all cases: NCI anticancer screen, dose series, 48 h
[1] = tested on: Malme-3M
[2] = tested on: SK-OV-3
[3] = tested on: CCRF-CEM
[4] = tested on: NCI-H522
[5] = tested on: 786-0
[6] = tested on: BT-549
[7] = tested on: RXF 393
[8] = tested on: UO-31
[9] = tested on: HT-29
[10] = tested on: Hs-578T
[11] = tested on: SF-539
[12] = tested on: T47D
[13] = tested on: MDA-N
[14] = tested on: COLO 205
[15] = tested on: A549
[16] = tested on: HCT-15
[17] = tested on: SN12C
[18] = tested on: TK-10
[19] = tested on: HCC 2998
[20] = tested on: LOX IMVI
[21] = tested on: OVCAR-5
[22] = tested on: SK-MEL-2
[23] = tested on: NCI-H23
[24] = tested on: OVCAR-8
[25] = tested on: MOLT-4
[26] = tested on: SR
[27] = tested on: NCI-H460
[28] = tested on: NCI/ADR-RES
[29] = tested on: IGROV-1
[30] = tested on: SF-268
[31] = tested on: UACC-257
[32] = tested on: KM12
[33] = tested on: OVCAR-4
[34] = tested on: CAKI-1
[35] = tested on: K562
[36] = tested on: M14
[37] = tested on: HL-60
[38] = tested on: SF-295
[39] = tested on: UACC-62
[40] = tested on: MDA-MB-231
[41] = tested on: SK-MEL-5
[42] = tested on: MCF7
[43] = tested on: PC-3
[44] = tested on: HCT-116
[45] = tested on: ACHN
[46] = tested on: EKVX
[47] = tested on: DU-145
[48] = tested on: OVCAR-3
[49] = tested on: HOP-62
[50] = tested on: SNB-19
[51] = tested on: SNB-75
[52] = tested on: HOP-92
[53] = tested on: SW-620
[54] = tested on: SK-MEL-28
[55] = tested on: MDA-MB-435
[56] = tested on: RPMI-8226
[57] = tested on: A498

In the case of `CC(C)[Si](OC1=CCC[C@H]2NC(=O)[C@@H](Cc3ccc([N+](=O)[O-])cc3)[C@@]12C)(C(C)C)C(C)C`, the GI50 [1] is reported as 16.6 µM (inactive), the GI50 [2] is reported as 10.1 µM (inactive) and the GI50 [3] is reported as 2.86 µM (inactive). The GI50 [4] was 4.95 µM (inactive), the GI50 [5] was 5.11 µM (inactive) and the GI50 [6] was 3.76 µM (inactive). The GI50 [7] was 2.15 µM (inactive), the GI50 [8] was 13.4 µM (inactive) and the GI50 [9] was 2.12 µM (inactive). For the same compound, the GI50 [10] was 7.31 µM (inactive), the GI50 [11] was 2.42 µM (inactive) and the GI50 [12] was 4.73 µM (inactive). The GI50 [13] was 4.98 µM (inactive), the GI50 [14] was 3.98 µM (inactive) and the GI50 [15] was 1.85 µM (inactive). The GI50 [16] was 4.25 µM, the GI50 [17] was 2.02 µM (inactive) and the GI50 [18] was 11 µM (inactive). For the same compound, the GI50 [19] was 1.95 µM (inactive), the GI50 [20] was 4.9 µM (inactive) and the GI50 [21] was 8.65 µM (inactive). The GI50 [22] was 12.8 µM (inactive), the GI50 [23] was 5.53 µM (inactive) and the GI50 [24] was 11.6 µM (inactive). For the same compound, the GI50 [25] was 3.72 µM (inactive), the GI50 [26] was 2.79 µM (inactive) and the GI50 [27] was 3.35 µM (inactive). The GI50 [28] was 11.7 µM (inactive), the GI50 [29] was 11.3 µM (inactive) and the GI50 [30] was 7.52 µM (inactive). For the same compound, the GI50 [31] was 5.47 µM (inactive), the GI50 [32] was 3.73 µM (inactive) and the GI50 [33] was 4.47 µM (inactive). The GI50 [34] was 13.2 µM (inactive), the GI50 [35] was 3.06 µM (inactive) and the GI50 [36] was 12.5 µM (inactive). The GI50 [37] was 3.44 µM (inactive), the GI50 [38] was 4.59 µM (inactive) and the GI50 [39] was 14.2 µM (inactive). For the same compound, the GI50 [40] was 6.5 µM (inactive), the GI50 [41] was 2.3 µM (inactive) and the GI50 [42] was 3.73 µM (inactive). For the same compound, the GI50 [43] was 3.4 µM (inactive), the GI50 [44] was 3.68 µM (inactive) and the GI50 [45] was 1.49 µM (inactive). The GI50 [46] was 6.37 µM (inactive), the GI50 [47] was 9.46 µM (inactive) and the GI50 [48] was 4.34 µM (inactive). The GI50 [49] was 4.3 µM (inactive), the GI50 [50] was 12.5 µM (inactive) and the GI50 [51] was 10.4 µM (inactive).

In the case of `N#Cc1c(N2CCC(O)C2)c2ccccc2n2c1nc1ccccc12` (centres undefined), the GI50 [1] is reported as 40.4 µM (inactive), the GI50 [3] is reported as > 100 µM (inactive) and the GI50 [4] is reported as 47.5 µM (inactive). The GI50 [5] was 17.1 µM (inactive), the GI50 [52] was 41.1 µM (inactive) and the GI50 [6] was 46.9 µM (inactive). For the same compound, the GI50 [8] was > 100 µM (inactive), the GI50 [53] was > 100 µM (inactive) and the GI50 [9] was > 100 µM (inactive). For the same compound, the GI50 [10] was 29.2 µM (inactive), the GI50 [11] was 54.8 µM (inactive) and the GI50 [54] was > 100 µM (inactive). For the same compound, the GI50 [12] was 64.3 µM (inactive), the GI50 [13] was > 100 µM (inactive) and the GI50 [14] was > 100 µM (inactive). The GI50 [15] was > 100 µM (inactive), the GI50 [55] was > 100 µM (inactive) and the GI50 [16] was greater than 100 µM. The GI50 [17] was 72.4 µM (inactive), the GI50 [56] was > 100 µM (inactive) and the GI50 [18] was 51.1 µM (inactive). The GI50 [19] was > 100 µM (inactive), the GI50 [20] was > 100 µM (inactive) and the GI50 [21] was > 100 µM (inactive). For the same compound, the GI50 [22] was 43.4 µM (inactive), the GI50 [23] was 67.6 µM (inactive) and the GI50 [24] was 45.7 µM (inactive). The GI50 [25] was > 100 µM (inactive), the GI50 [27] was > 100 µM (inactive) and the GI50 [28] was 65.3 µM (inactive). For the same compound, the GI50 [29] was 69.2 µM (inactive), the GI50 [30] was 43.7 µM (inactive) and the GI50 [31] was > 100 µM (inactive). For the same compound, the GI50 [32] was > 100 µM (inactive), the GI50 [33] was 20.5 µM (inactive) and the GI50 [34] was 37.9 µM (inactive). The GI50 [36] was > 100 µM (inactive), the GI50 [37] was > 100 µM (inactive) and the GI50 [38] was 31 µM (inactive). For the same compound, the GI50 [39] was > 100 µM (inactive), the GI50 [40] was 19.4 µM (inactive) and the GI50 [57] was 31.3 µM (inactive). The GI50 [41] was > 100 µM (inactive), the GI50 [42] was > 100 µM (inactive) and the GI50 [43] was > 100 µM (inactive). For the same compound, the GI50 [44] was > 100 µM (inactive), the GI50 [45] was 18.2 µM (inactive) and the GI50 [46] was > 100 µM (inactive). For the same compound, the GI50 [47] was > 100 µM (inactive), the GI50 [48] was > 100 µM (inactive) and the GI50 [49] was 18.6 µM (inactive). For the same compound, the GI50 [50] was 32.1 µM (inactive) and the GI50 [51] was 25.1 µM (inactive).

Reference: ChEMBL document CHEMBL1201862, “PubChem BioAssay data set” (2004)
